The nature of data set [1]: Pharmacokinetics in C57BL/6J mice. Type of data set: in vivo. To be noted: mouse, plasma. How it is done: Next, we evaluated the pharmacokinetics (PK) of LD4172 in C57BL/6J (B6) mice (Fig. 4A).
Figure 4 LD4172 synergizes with Anti-PD1 to inhibit tumor growth. A, Plasma concentrations of LD4172 in C57BL/6J mice administered 1 mg/kg intravenously (i.v.) or 10 mg/kg intraperitoneally (i.p.) (n=4). B, Representative immunoblots of RIPK1 in different tissues of C57BL/6J mice treated with LD4172 (n=3–4). C, Densitometric analysis of RIPK1 protein levels in different tissues (n=3 or 4). D, Representative immunoblots of RIPK1 levels of B16F10 cells transduced with gRNA specific for RIPK1 or non-targetable control (sgNC). E, B16F10-RIPK1-KO tumors sensitized to anti-PD1 treatment: 3×10^5 B16F10 cells transduced with gRNA specific for RIPK1 or non-targetable control (sgNC) were inoculated into C57BL/6J mice. After seven days, mice with measurable tumors (~100 mm3) were randomly treated with or without anti-PD1 in vivo (100 μg per dose, i.p., every three days, n=8). F, Tumor growth curve of mice with B16F10 tumors treated with LD4172 and/or anti-PD1 (n=8). C57B6/J mice were subcutaneously inoculated with 3×10^5 B16F10 tumor cells. After seven days (tumor size ~ 100 mm3), mice were treated every three days with anti- PD1 (100 μg per dose, i.p.), daily with LD4172 (20 mg/kg, i.p.), a combination of LD4172 and anti-PD1 (same dose as their individual doses), or their corresponding vehicle control. G, Kaplan-Meier survival curve for all experimental groups. H, Final tumor weight (g) from F after 22d of treatment (n=8). I, Representative images of B16F10 tumors collected at the end of treatment. J, Mouse body weight (n=8). K, Tumor growth curve of mice with B16F10 tumors treated with T2I and/or anti-PD1 (n=8). The experimental conditions and treatment regimens were the same as F except using the RIPK1 kinase inhibitor T2I (20 mg/kg, i.p.) to replace LD4172. Representative data from at least three independent experiments are shown. Data are expressed as the mean ± SEM. * p<0.05; ** p<0.01; *** p<0.001, **** p<0.0001, respectively. ns, indicates no statistical significance.

Data set [2] is described as follows: Stability in human primary hepatocytes. The data set is classed as in vitro ADME.

Where two headings read alike, the source gives them in different places.

In general, bioavailability refers to dose-corrected exposure relative to a reference, in per cent. What is called clearance is the volume of plasma or blood freed of the substance per unit of time. Broadly, the Vd is the apparent volume that relates the amount in the body to the concentration in plasma or blood.

Take `Cc1ncsc1-c1ccc([C@H](C)NC(=O)[C@@H]2C[C@@H](O)CN2C(=O)[C@@H](NC(=O)CCCCCCCCCCC(=O)NCCCn2cc(-c3ccc4c(c3)CCN4C(=O)Cc3cccc(OC(F)(F)F)c3)c3c(N)ncnc32)C(C)(C)C)cc1` [LD4172]: the bioavailability in data set [1] (intraperitoneal, i.p. 10 mg/kg vs i.v. 1 mg/kg) came out at 39%. Moreover, the AUC in data set [1] (ip, 10 mg/kg i.p., read-out: AUC) was found to be 2700 nM·h; in data set [1] (iv, 1 mg/kg i.v., read-out: area under the concentration-time curve (AUC)) it was 700 ± 70 nM·h. Besides, the Cmax in data set [1] (ip, 10 mg/kg i.p., read-out: Cmax) is 2.9 µM; in data set [1] (iv, 1 mg/kg i.v., read-out: maximum plasma concentration (Cmax)) it was 6.3 ± 0.8 µM. Also, the half-life was 1.5 h in data set [1] (ip, 10 mg/kg i.p., read-out: t1/2 (converted)); 3.3 ± 2.1 h in data set [1] (iv, 1 mg/kg i.v., read-out: half-life (t1/2) (converted)); 0.938 h in data set [2]. Moreover, in data set [1] (iv, 1 mg/kg i.v.), the clearance stood at 1.19 ± 0.108 L/h/kg. The Vd in data set [1] (iv, 1 mg/kg i.v., read-out: volume of distribution (Vd)) is 1.1 ± 0.2 L/kg.

The values above are taken from PMC11042424, “Development of a First-in-Class RIPK1 Degrader to Enhance Antitumor Immunity” (Research Square, 2024).
